Measured values: US11753411B2, “Substituted pyrazolo[1,5-a]pyrimidines as TYK2 pseudokinase ligands” (Ventyx Biosciences, Inc., priority 2019, dated 2023)

Tested on: IFN-a/Jak1 Tyk2
Assay: Co-stimulation assay in lysed whole blood: IFNa (JAK1/TYK2) stimulated STAT1 phosphorylation
Assay type: cell-based
Conditions: Homo sapiens, 20 min, 100 ng/mL IFNa (with 10 ng/mL GM-CSF), pSTAT by flow cytometry
In short: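 Lysed human whole blood (RBC-lysed, resuspended in cRPMI) pre-incubated with compound 1 h at 37 °C, then stimulated 20 min with IFNa 100 ng/mL plus GM-CSF 10 ng/mL (final). Fixed, permeabilised, stained for pSTAT1 (PE) and pSTAT5 (AF488); flow cytometry read-out, ≥5,000–10,000 cells acquired.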

| SMILES | IC50 [µM] |
| --- | --- |
| CNc1cc(Nc2cccc3c2OCCO3)nc2c(NC(=O)NC3CC3O)cnn12 (centres unmarked) [Compound 32, 1-(5-((2,3-dihydrobenzo[b][1,4]dioxin-5-yl)amino)-7-(methylamino)pyrazolo[1,5-a]pyrimidin-3-yl)-3-(2-hydroxycyclopropyl)urea] | ≥ 10 |
| CNc1cc(Nc2cccc3c2OCCO3)nc2c(NC(=O)NC3CCC3C#N)cnn12 (centres unmarked) [Compound 43, 1-(2-cyanocyclobutyl)-3-(5-((2,3-dihydrobenzo[b][1,4]dioxin-5-yl)amino)-7-(methylamino)pyrazolo[1,5-a]pyrimidin-3-yl)urea] | 1 to 10 |
| CNc1cc(Nc2cc(F)cc3c2OCCO3)nc2c(NC(=O)NCC#N)cnn12 [Compound 114, 1-(cyanomethyl)-3-(5-((7-fluoro-2,3-dihydrobenzo[b][1,4]dioxin-5-yl)amino)-7-(methylamino)pyrazolo[1,5-a]pyrimidin-3-yl)urea] | < 1 |
| CNC(=O)Nc1cnn2c(NC)cc(Nc3cc(F)cc4c3OCCO4)nc12 [Compound 65, 1-(5-((7-fluoro-2,3-dihydrobenzo[b][1,4]dioxin-5-yl)amino)-7-(methylamino)pyrazolo[1,5-a]pyrimidin-3-yl)-3-methylurea] | < 1 |
| CNc1cc(Nc2cc(F)cc3c2OCCO3)nc2c(NC(=O)NCC(N)=O)cnn12 [Compound 118, 2-(3-(5-((7-fluoro-2,3-dihydrobenzo[b][1,4]dioxin-5-yl)amino)-7-(methylamino)pyrazolo[1,5-a]pyrimidin-3-yl)ureido)acetamide] | < 1 |
| [2H]C([2H])([2H])Nc1cc(Nc2cccc3c2OCCO3)nc2c(NC(=O)N[C@@H]3C[C@@H]3F)cnn12 [Compound 40, 1-(5-((2,3-dihydrobenzo[b][1,4]dioxin-5-yl)amino)-7-((methyl-d3)amino)pyrazolo[1,5-a]pyrimidin-3-yl)-3-((1R,2S)-2-fluorocyclopropyl)urea] | < 1 |
| CNC(=O)Nc1cnn2c(NC)cc(Nc3cccc4c3N(C)CCO4)nc12 [Compound 163, 1-methyl-3-(5-((4-methyl-3,4-dihydro-2H-benzo[b][1,4]oxazin-5-yl)amino)-7-(methylamino)pyrazolo[1,5-a]pyrimidin-3-yl)urea] | 1 to 10 |
| CNc1cc(Nc2cccc3c2OCCC3(F)F)nc2c(NC(=O)N[C@@H]3C[C@@H]3F)cnn12 [Compound 184, 1-(5-((4,4-difluorochroman-8-yl)amino)-7-(methylamino)pyrazolo[1,5-a]pyrimidin-3-yl)-3-((1R,2S)-2-fluorocyclopropyl)urea] | 1 to 10 |
| CCNC(=O)Nc1cnn2c(NC)cc(Nc3cccc4c3OCCO4)nc12 [Compound 147, 1-(5-((2,3-dihydrobenzo[b][1,4]dioxin-5-yl)amino)-7-(methylamino)pyrazolo[1,5-a]pyrimidin-3-yl)-3-ethylurea] | < 1 |
| [2H]C([2H])([2H])Nc1cc(Nc2cc(F)cc3c2OCCO3)nc2c(NC(=O)N[C@@H]3C[C@@H]3F)cnn12 [Compound 49, 1-(5-((7-fluoro-2,3-dihydrobenzo[b][1,4]dioxin-5-yl)amino)-7-((methyl-d3)amino)pyrazolo[1,5-a]pyrimidin-3-yl)-3-((1R,2S)-2-fluorocyclopropyl)urea] | < 1 |
| CNC(=O)Nc1cnn2c(NC)cc(Nc3ccnc4c3OCCO4)nc12 [Compound 92, 1-(5-((2,3-dihydro-[1,4]dioxino[2,3-b]pyridin-8-yl)amino)-7-(methylamino)pyrazolo[1,5-a]pyrimidin-3-yl)-3-methylurea] | 1 to 10 |
| C#Cc1cc(Nc2cc(NC)n3ncc(NC(=O)NC)c3n2)c2c(c1)OCCO2 [Compound 109, 1-(5-((7-ethynyl-2,3-dihydrobenzo[b][1,4]dioxin-5-yl)amino)-7-(methylamino)pyrazolo[1,5-a]pyrimidin-3-yl)-3-methylurea] | < 1 |
| CNC(=O)Nc1cnn2c(NC)cc(Nc3ccc4c(c3)OCCO4)nc12 [Compound 107, 1-(5-((2,3-dihydrobenzo[b][1,4]dioxin-6-yl)amino)-7-(methylamino)pyrazolo[1,5-a]pyrimidin-3-yl)-3-methylurea] | 1 to 10 |
| CNc1cc(Nc2cc(F)cc3c2OCCO3)nc2c(NC(=O)N[C@@H]3C[C@@H]3C#N)cnn12 [Compound 51, 1-((1R,2S)-2-cyanocyclopropyl)-3-(5-((7-fluoro-2,3-dihydrobenzo[b][1,4]dioxin-5-yl)amino)-7-(methylamino)pyrazolo[1,5-a]pyrimidin-3-yl)urea] | < 1 |
| CNc1cc(Nc2cccc3c2OCCO3)nc2c(NC(=O)NCCC(F)F)cnn12 [Compound 179, 1-(3,3-difluoropropyl)-3-(5-((2,3-dihydrobenzo[b][1,4]dioxin-5-yl)amino)-7-(methylamino)pyrazolo[1,5-a]pyrimidin-3-yl)urea] | < 1 |
| CNc1cc(Nc2c(F)c(F)cc(F)c2F)nc2c(NC(=O)N[C@@H]3C[C@@H]3F)cnn12 [Compound 38, 1-((1R,2S)-2-fluorocyclopropyl)-3-(7-(methylamino)-5-((2,3,5,6-tetrafluorophenyl)amino)pyrazolo [1,5-a]pyrimidin-3-yl)urea] | 1 to 10 |

| SMILES | IC50 [µM] |
| --- | --- |
| CNc1cc(Nc2cccc3c2OCCO3)nc2c(NC(=O)N[C@@H](C)C#N)cnn12 [Compound 121, (S)-1-(1-cyanoethyl)-3-(5-((2,3-dihydrobenzo[b][1,4]dioxin-5-yl)amino)-7-(methylamino)pyrazolo[1,5-a]pyrimidin-3-yl)urea] | < 1 |
| CNc1cc(Nc2cccc3c2OCCO3)nc2c(NC(=O)NC3CC(=O)C3)cnn12 [Compound 36, 1-(5-((2,3-dihydrobenzo[b][1,4]dioxin-5-yl)amino)-7-(methylamino)pyrazolo[1,5-a]pyrimidin-3-yl)-3-(3-oxocyclobutyl)urea] | < 1 |
| CNC(=O)Nc1cnn2c(NC)cc(Nc3cccc4ccccc34)nc12 [Compound 160, 1-methyl-3-(7-(methylamino)-5-(naphthalen-1-ylamino)pyrazolo[1,5-a]pyrimidin-3-yl)urea] | < 1 |
| CNC(=O)Nc1cnn2c(NC)cc(Nc3cc(OC)cc4c3OCCO4)nc12 [Compound 81, 1-(5-((7-methoxy-2,3-dihydrobenzo[b][1,4]dioxin-5-yl)amino)-7-(methylamino)pyrazolo[1,5-a]pyrimidin-3-yl)-3-methylurea] | < 1 |
| CNc1cc(Nc2cccc3c2OCCO3)nc2c(NC(=O)NC3CC(O)C3)cnn12 (centres unmarked) [Compound 29, 1-(5-((2,3-dihydrobenzo[b][1,4]dioxin-5-yl)amino)-7-(methylamino)pyrazolo[1,5-a]pyrimidin-3-yl)-3-(3-hydroxycylcobutyl)urea] | 1 to 10 |
| CNc1cc(Nc2cccc3cccnc23)nc2c(NC(=O)N[C@@H]3C[C@@H]3F)cnn12 [Compound 39, 1-((1R,2S)-2-fluorocyclopropyl)-3-(7-(methylamino)-5-(quinolin-8-ylamino)pyrazolo[1,5-a]pyrimidin-3-yl)urea] | < 1 |
| CNc1cc(Nc2cc(C#N)cc3c2OCCO3)nc2c(NC(=O)N[C@@H]3C[C@@H]3F)cnn12 [Compound 33, 1-(5-((7-cyano-2,3-dihydrobenzo[b][1,4]dioxin-5-yl)amino)-7-(methylamino)pyrazolo[1,5-a]pyrimidin-3-yl)-3-((1R,2S)-2-fluorocyclopropyl)urea] | < 1 |
| CNc1cc(Nc2cc(F)cc3c2OCCO3)nc2c(NC(N)=O)cnn12 [Compound 124, 1-(5-((7-fluoro-2,3-dihydrobenzo[b][1,4]dioxin-5-yl)amino)-7-(methylamino)pyrazolo[1,5-a]pyrimidin-3-yl)urea] | < 1 |
| CNc1cc(Nc2cc(C(F)(F)F)cc3c2OCCO3)nc2c(NC(=O)NC3CC3)cnn12 [Compound 82, 1-cyclopropyl-3-(7-(methylamino)-5-((7-(trifluoromethyl)-2,3-dihydrobenzo[b][1,4]dioxin-5-yl)amino)pyrazolo[1,5-a]pyrimidin-3-yl)urea] | 1 to 10 |
| CNC(=O)Nc1cnn2c(NC)cc(Nc3cccnc3OC)nc12 [Compound 164, 1-(5-((2-methoxypyridin-3-yl)amino)-7-(methylamino)pyrazolo[1,5-a]pyrimidin-3-yl)-3-methylurea] | < 1 |
| [2H]C([2H])([2H])Nc1cc(-c2cn(C3CCOCC3)c3ncccc23)nc2c(NC(=O)NC)cnn12 [Compound 73, 1-methyl-3-(7-((methyl-d3)amino)-5-(1-(tetrahydro-2H-pyran-4-yl)-1H-pyrrolo[2,3-b]pyridin-3-yl)pyrazolo[1,5-a]pyrimidin-3-yl)urea] | < 1 |
| CNC(=O)Nc1cnn2c(NC)cc(Nc3cccc4c3OCCN4C)nc12 [Compound 62, 1-methyl-3-(5-((4-methyl-3,4-dihydro-2H-benzo[b][1,4]oxazin-8-yl)amino)-7-(methylamino)pyrazolo[1,5-a]pyrimidin-3-yl)urea] | 1 to 10 |
| CNc1cc(Nc2cc(F)cc3c2OC[C@H](CO)O3)nc2c(NC(=O)N[C@@H]3C[C@@H]3F)cnn12 [Compound 185, 1-(5-(((S)-7-fluoro-2-(hydroxymethyl)-2,3-dihydrobenzo[b][1,4]dioxin-5-yl)amino)-7-(methylamino)pyrazolo[1,5-a]pyrimidin-3-yl)-3-((1R,2S)-2-fluorocyclopropyl)urea] | 1 to 10 |
| CNC(=O)Nc1cnn2c(NC)cc(Nc3cccc(Cl)c3OC)nc12 [Compound 63, 1-(5-((3-chloro-2-methoxyphenyl)amino)-7-(methylamino)pyrazolo[1,5-a]pyrimidin-3-yl)-3-methylurea] | 1 to 10 |
| CNC(=O)Nc1cnn2c(NC)cc(Nc3cccc(-c4cnn(C)c4)c3OC)nc12 [Compound 19, 1-(5-((2-methoxy-3-(1-methyl-1H-pyrazol-4-yl)phenyl)amino)-7-(methylamino)pyrazolo[1,5-a]pyrimidin-3-yl)-3-methylurea] | 1 to 10 |
| CNc1cc(Nc2cc(F)cc3c2OCCO3)nc2c(NC(=O)N[C@H]3C[C@H]3F)cnn12 [Compound 42, 1-(5-((7-fluoro-2,3-dihydrobenzo[b][1,4]dioxin-5-yl)amino)-7-(methylamino)pyrazolo[1,5-a]pyrimidin-3-yl)-3-((1S,2R)-2-fluorocyclopropyl)urea] | < 1 |
